Laboratory results published in patent US10711006B2, “Selective Bruton's tyrosine kinase inhibitor and use thereof” (HANGZHOU HERTZ PHARMACEUTICAL CO., LTD., priority 2016, dated 2020).

Experiments:
FLT3 = FLT3 (Homo sapiens (Human), UniProt P36888); assay: Kinase selectivity experiment, FLT3; format: biochemical; settings: read-out: Inhibitory activity against FLT3 (IC50)
Method: (§1) A 1× kinase base buffer and a reaction stop buffer for respective kinases in the experiment were prepared as required.
(§2) Preparation of Compounds to be Tested:
(§3) 2) diluting each compound at a 5-fold concentration gradient in a 96-well plate to 6 to 7 concentrations and ensuring that the drug volume in each well was 10 μl; and at the same time adding 100 μl of DMSO to prepare a blank control group and also preparing a negative control group without the enzyme substrate; and
(§4) 3) preparing another 96-well plate, adding 10 μl of each of the above compounds to 90 μl of the 1× kinase base buffer and mixing for 10 minutes to be uniform.
(§5) Preparation of the Plate to be Tested:
(§6) 1) 5 μl of the mixed solution prepared as above in the 96-well plate was taken and transferred to a 384-well plate, with two replicate wells for each compound.
(§7) 1) Preparing a 2.5× kinase solution and adding a corresponding 1× kinase base buffer;
(§8) 2) preparing a 2.5× polypeptide solution and adding FAM-labeled polypeptide and ATP in the 1× kinase base buffer; and
(§9) 3) adding 10 μl of 2.5× kinase solution to a 384-well plate to be tested, placing in a room-temperature environment for 10 minutes, and then adding 10 μl of the 2.5× polypeptide solution, reacting at 28° C. for 1 hour, and then adding 25 μl of a reaction stop buffer.
(§10) The Caliper program reads the plate and uses the data to obtain the IC50 values of the corresponding compounds against kinases.

hERG potassium channel = hERG potassium channel (Homo sapiens (Human), UniProt Q12809); assay: hERG potassium channel inhibitory activity, manual patch clamp in CHO cells; format: cell-based; settings: CHO cells stably expressing hERG, whole-cell patch clamp
Method: The cells used in this experiment were CHO cell lines transfected with HergCdna and stably expressing Herg channels (supplied by Sophion Bioscience, Denmark). The cells were cultured in a medium containing the following components (all from Invitrogen): Ham's F12 medium, 10% (v/v) inactivated fetal bovine serum, 100 μg/ml hygromycin B, 100 μg/ml Geneticin. […] 24 to 48 hours before an electrophysiological experiment, CHO Herg cells were transferred to circular slides placed in the culture dishes and grow with the same culture liquid under the same culture conditions as above. The density of CHO Herg cells on each circular slide was required to reach such a value that most cells were independent and stand alone.
2. Treatment and Dilution of a Compound
Before the test, the compound was first diluted with DMSO at gradient to make stock solutions with concentrations of 10, 3, 1, 0.3 and 0.1 Mm and the stock solutions were then diluted with extracellular fluid to a final Mm test concentration. Except that the DMSO concentration in the 30 Mm compound test solution was 0.3%, the final concentration of DMSO in each of the compound solutions with other concentrations was 0.1%. The test concentration of a positive control Cisapridewas 0.1 Mm. All compound solutions were conventionally sonicated and shaken for 5 to 10 minutes to ensure complete dissolution of the compound.
3. Electrophysiological Recording System and Data Analysis
This experiment uses a manual patch clamp system (HEKA EPC-10 signal amplifier and digital conversion system, purchased from HEKA Electronics, Germany) for the recording of whole cell currents. The circular slides with CHO Herg cells growing on the surfaces were placed in an electrophysiological recording slot under an inverted microscope. The extracellular fluid was used for continuous perfusion in the recording slot (approximately lml per minute). The experimental procedure uses a conventional whole-cell patch clamp current recording technique. Unless otherwise stated, the experiment was carried out at regular room temperature ([…]). The cells were clamped at a voltage of −80 Mv. The cell clamp voltage was depolarized to +20 Mv to activate the Herg potassium channel, and 5 seconds later, it was clamped to −50 Mv to eliminate inactivation and generate tail current. The peak of the tail current was used as the value of the Herg current. After the hERG potassium current recorded in the above step was stabilized under the continuous extracellular fluid perfusion in the recording slot, the drug to be tested can be superimposed to the perfusion until the inhibitory effect of the drug on the hERG current reaches a steady state. Generally, the criterion for determine whether or not the stable state was reached was that the recent three consecutive current recording lines were coincident. After the steady state was reached, extracellular fluid perfusion was carried out for flushing until the hERG current returns to the magnitude before the drug was added. One cell may be used for testing one or more drugs, or multiple concentrations of the same drug, and flushing with extracellular fluid was carried out between tests of different drugs. Cisapride (purchased from Sigma) was used in the experiment as a positive control to ensure that the cells used were of normal quality. The test data was analyzed by data analysis software provided by HEKA Patchmaster, Microsoft Excel and Graphpad Prism.

[1] = tested on: human diffuse large B lymphoma (TMD-8); assay: In-vitro tumor cell proliferation inhibition (CCK-8), TMD-8; settings: TMD8, 72 h, read-out: Tumor cell proliferation inhibitory activity (IC50, nM) TMD-8
Method: (§11) The in-vitro antitumor activity assay was carried out on the synthesized compound by using different solid tumors and leukemia cell lines:
(§12) Cell lines: human lung cancer cell (A549), human mantle cell lymphoma (MINO), diffuse giant B-cell lymphoma (OCI-LY10), and human diffuse large B lymphoma (TMD-8).
(§13) Preparation method of the drug: the drug was dissolved in DMSO to make a 10 mM stock solution, and then the stock solution was diluted in a certain ratio to obtain 5 different concentrations (test concentration 100×). In-vitro culture of tumor cells:
(§14) The tumor cells A549, MINO, OCI-LY10, and TMD-8 were seeded in a 96-well plate at 4000 cells/200 μL/well and then incubated overnight at 37° C. in a 5% CO2 cell culture incubator. 2 μL of the compound was added to each well to final concentrations of 50 μM, 10 μM, 2 μM, 0.4 μM, and 0.08 μM and then incubated for 72 hours at 37° C. in a 5% CO2 cell incubator, with DMSO (2%) as a control group. […] Wells loaded with the corresponding amount of cell culture fluid the and CCK-8 solution but no cells were considered as blank controls. The absorbance (OD value) was measured at 450 nm using a microplate reader, and the obtained data was used to calculate IC50.

FGR = FGR (Homo sapiens (Human), UniProt P09769); assay: Kinase selectivity experiment, FGR; format: biochemical; settings: read-out: Inhibitory activity against FGR (IC50)
Method: as §1, §2, §3, §4, §5, §6, §7, §8, §9, §10

[2] = tested on: human lung cancer cell (A549); assay: In-vitro tumor cell proliferation inhibition (CCK-8), A549; settings: A549, 72 h, read-out: Tumor cell proliferation inhibitory activity (IC50, μM) A549
Method: as §11, §12, §13, §14

[3] = tested on: human mantle cell lymphoma (MINO); assay: In-vitro tumor cell proliferation inhibition (CCK-8), MINO; settings: 72 h, read-out: Tumor cell proliferation inhibitory activity (IC50, μM) MINO
Method: as §11, §12, §13, §14

[4] = tested on: diffuse giant B-cell lymphoma (OCI-LY10); assay: In-vitro tumor cell proliferation inhibition (CCK-8), OCI-LY10; settings: Homo sapiens, OCI-Ly10, 72 h, read-out: Tumor cell proliferation inhibitory activity (IC50, nM) OCI-LY10
Method: as §11, §12, §13, §14

ITK = ITK (Homo sapiens (Human), UniProt Q08881); assay: Kinase selectivity experiment, ITK; format: biochemical; settings: read-out: Inhibitory activity against ITK (IC50)
Method: as §1, §2, §3, §4, §5, §6, §7, §8, §9, §10

JAK3 = JAK3 (Homo sapiens (Human), UniProt P52333); assay: Kinase selectivity experiment, JAK3; format: biochemical; settings: read-out: Inhibitory activity against JAK3 (IC50)
Method: as §1, §2, §3, §4, §5, §6, §7, §8, §9, §10

HCK = HCK (Homo sapiens (Human), UniProt P08631); assay: Kinase selectivity experiment, HCK; format: biochemical; settings: read-out: Inhibitory activity against HCK (IC50)
Method: as §1, §2, §3, §4, §5, §6, §7, §8, §9, §10

BLK = BLK (Homo sapiens (Human), UniProt P51451); assay: Kinase selectivity experiment, BLK; format: biochemical; settings: read-out: Inhibitory activity against BLK (IC50)
Method: as §1, §2, §3, §4, §5, §6, §7, §8, §9, §10

[5] = tested on: arthritis induced by anti-collagen antibodies and lipopolysaccharides; assay: Rheumatoid arthritis model induced by anti-collagen antibodies and lipopolysaccharides; format: in vivo, Balb/c mice
Method: In Balb/c mice, arthritis was induced by administration of anti-collagen antibodies and lipopolysaccharides (Nandakumar et al., Am. J. Pathol. 2003, 163: 1827-1837).
The specific method was as follows: On Day 0, female Balb/c mice were intravenously injected with anti-type II collagen ChemicomAb mixture in a dose of 100 mg/kg, and on Day 1, lipopolysaccharide was intraperitoneally injected in a dose of 1.25 mg/kg. From Day 2 to Day 12, Compounds 15a, 17a, 24a and 24e were orally administered once a day in a dose of 10 mg/kg. On Day 13 after abdominal anesthesia, […] of blood was taken from the femoral artery and centrifuged at 3000 r/min for 20 minutes, serum was taken to detect IL-1β with a test kit, and related tissue samples were observed.

CSK = CSK (Homo sapiens (Human), UniProt P41240); assay: Kinase selectivity experiment, CSK; format: biochemical; settings: read-out: Inhibitory activity against CSK (IC50)
Method: as §1, §2, §3, §4, §5, §6, §7, §8, §9, §10

[6] = tested on: Mino subcutaneous xenograft tumor; assay: In-vivo pharmacodynamic study on Mino subcutaneous xenograft tumor models; settings: CB17 SCID mice, intragastric, twice a day
Method: In CB17 SCID mice, 0.2 mL of cell suspension containing 5×10^6 Mino cells was subcutaneously inoculated into the right back of each mouse, and when the mean tumor volume reaches approximately 139.94 mm3 (day 26 after inoculation), group administration was started (intragastric administration, twice a day, 14 days in total). Animals were monitored daily for health and mortality, and tumor diameters were measured twice a week using vernier calipers to see if tumor growth could be inhibited, delayed, or cured.

HCK, sequence (P08631 whole entry, species assumed): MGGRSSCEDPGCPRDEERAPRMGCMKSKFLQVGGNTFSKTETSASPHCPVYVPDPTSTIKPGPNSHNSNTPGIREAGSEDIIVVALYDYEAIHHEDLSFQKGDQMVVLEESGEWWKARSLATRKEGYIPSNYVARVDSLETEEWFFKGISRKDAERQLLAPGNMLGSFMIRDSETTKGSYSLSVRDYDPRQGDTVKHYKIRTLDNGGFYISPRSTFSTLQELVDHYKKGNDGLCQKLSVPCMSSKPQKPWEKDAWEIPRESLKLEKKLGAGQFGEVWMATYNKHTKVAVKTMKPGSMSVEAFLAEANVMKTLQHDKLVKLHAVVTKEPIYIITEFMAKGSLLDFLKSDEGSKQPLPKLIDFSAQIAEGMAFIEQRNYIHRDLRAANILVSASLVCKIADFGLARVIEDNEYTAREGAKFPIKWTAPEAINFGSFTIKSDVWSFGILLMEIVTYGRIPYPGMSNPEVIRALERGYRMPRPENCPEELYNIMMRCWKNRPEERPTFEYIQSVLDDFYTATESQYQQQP
ITK, sequence (Q08881 whole entry, species assumed): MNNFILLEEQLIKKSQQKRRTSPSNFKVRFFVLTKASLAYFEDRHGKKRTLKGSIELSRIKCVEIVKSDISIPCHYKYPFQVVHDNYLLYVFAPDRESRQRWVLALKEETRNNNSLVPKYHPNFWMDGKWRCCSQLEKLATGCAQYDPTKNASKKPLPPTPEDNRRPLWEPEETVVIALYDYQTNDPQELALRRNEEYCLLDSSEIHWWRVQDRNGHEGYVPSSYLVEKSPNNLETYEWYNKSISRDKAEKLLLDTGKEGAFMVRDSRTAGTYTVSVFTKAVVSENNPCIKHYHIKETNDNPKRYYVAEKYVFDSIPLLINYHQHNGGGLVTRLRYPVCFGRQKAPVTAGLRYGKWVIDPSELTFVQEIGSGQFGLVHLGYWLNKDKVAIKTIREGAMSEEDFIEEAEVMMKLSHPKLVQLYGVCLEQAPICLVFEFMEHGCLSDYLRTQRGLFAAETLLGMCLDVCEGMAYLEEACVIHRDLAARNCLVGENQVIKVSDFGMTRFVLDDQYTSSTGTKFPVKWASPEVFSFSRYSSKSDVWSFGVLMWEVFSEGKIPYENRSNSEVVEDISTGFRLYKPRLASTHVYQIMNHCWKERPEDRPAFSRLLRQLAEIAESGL
BLK, sequence (P51451 whole entry, species assumed): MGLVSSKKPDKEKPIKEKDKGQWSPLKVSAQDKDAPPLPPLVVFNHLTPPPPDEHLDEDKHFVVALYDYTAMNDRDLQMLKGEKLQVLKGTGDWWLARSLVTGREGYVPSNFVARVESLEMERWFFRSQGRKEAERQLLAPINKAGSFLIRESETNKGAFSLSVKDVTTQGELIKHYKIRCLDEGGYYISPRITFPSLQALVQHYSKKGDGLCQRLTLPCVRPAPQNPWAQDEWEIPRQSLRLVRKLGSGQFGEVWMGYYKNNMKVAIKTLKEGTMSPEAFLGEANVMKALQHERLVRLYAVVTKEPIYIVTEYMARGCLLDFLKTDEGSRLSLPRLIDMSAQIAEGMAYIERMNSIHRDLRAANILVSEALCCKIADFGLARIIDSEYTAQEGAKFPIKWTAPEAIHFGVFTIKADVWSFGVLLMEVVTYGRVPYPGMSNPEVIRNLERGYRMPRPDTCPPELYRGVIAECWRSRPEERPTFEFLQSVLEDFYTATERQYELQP
JAK3, sequence (P52333 whole entry, species assumed): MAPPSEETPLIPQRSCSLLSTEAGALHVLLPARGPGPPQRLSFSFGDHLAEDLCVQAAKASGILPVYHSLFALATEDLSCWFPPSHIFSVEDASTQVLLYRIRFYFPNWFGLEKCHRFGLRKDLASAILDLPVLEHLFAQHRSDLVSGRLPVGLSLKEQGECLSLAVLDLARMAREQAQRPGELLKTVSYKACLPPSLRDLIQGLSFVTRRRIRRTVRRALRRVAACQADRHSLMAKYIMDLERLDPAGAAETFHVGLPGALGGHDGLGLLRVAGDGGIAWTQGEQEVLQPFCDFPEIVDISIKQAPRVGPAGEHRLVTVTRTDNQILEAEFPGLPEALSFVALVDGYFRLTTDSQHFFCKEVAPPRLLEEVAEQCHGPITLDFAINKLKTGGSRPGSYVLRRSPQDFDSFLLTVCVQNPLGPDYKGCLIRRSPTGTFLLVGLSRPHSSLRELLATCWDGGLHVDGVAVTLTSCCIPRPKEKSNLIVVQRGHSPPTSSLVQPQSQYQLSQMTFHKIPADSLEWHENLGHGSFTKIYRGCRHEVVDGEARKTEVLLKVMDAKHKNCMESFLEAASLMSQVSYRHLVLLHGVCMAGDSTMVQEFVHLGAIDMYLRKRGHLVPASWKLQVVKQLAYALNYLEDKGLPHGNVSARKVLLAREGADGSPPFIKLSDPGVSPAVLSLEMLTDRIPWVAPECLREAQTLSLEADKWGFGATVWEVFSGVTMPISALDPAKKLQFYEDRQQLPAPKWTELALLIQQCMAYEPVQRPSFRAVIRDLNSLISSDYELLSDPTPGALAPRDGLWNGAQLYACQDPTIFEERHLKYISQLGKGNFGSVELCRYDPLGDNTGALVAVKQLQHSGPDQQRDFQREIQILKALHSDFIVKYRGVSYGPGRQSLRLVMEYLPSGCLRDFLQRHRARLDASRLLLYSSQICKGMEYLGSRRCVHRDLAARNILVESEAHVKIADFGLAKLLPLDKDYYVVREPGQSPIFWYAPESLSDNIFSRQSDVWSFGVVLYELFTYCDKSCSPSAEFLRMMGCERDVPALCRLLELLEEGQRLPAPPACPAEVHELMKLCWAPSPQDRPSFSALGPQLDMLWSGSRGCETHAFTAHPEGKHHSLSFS
FLT3, sequence (P36888 27-993, species assumed): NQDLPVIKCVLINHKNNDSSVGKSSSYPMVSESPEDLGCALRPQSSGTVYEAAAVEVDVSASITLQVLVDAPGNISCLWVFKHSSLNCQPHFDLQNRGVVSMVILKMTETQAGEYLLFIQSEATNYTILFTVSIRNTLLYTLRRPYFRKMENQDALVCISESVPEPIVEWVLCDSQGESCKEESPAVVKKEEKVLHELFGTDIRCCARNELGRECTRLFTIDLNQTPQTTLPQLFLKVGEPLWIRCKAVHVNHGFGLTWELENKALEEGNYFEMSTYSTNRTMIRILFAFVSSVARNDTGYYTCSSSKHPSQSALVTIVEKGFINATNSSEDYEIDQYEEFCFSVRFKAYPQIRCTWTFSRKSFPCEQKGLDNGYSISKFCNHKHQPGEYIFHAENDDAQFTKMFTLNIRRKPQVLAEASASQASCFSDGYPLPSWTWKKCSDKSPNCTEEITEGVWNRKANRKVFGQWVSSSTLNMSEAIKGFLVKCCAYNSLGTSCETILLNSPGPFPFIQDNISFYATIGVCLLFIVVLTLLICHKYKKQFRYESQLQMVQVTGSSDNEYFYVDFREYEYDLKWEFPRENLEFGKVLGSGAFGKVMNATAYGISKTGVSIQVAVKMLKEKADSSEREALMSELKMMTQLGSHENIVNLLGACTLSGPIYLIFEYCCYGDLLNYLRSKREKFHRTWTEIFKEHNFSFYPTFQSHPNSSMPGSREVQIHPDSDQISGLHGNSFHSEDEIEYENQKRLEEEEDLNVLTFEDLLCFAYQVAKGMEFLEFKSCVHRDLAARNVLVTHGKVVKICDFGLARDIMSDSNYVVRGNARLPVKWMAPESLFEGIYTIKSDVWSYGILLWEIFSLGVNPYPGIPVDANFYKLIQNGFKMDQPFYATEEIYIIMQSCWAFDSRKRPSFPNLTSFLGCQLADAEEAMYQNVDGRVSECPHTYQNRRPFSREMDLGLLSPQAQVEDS
FGR, sequence (P09769 whole entry, species assumed): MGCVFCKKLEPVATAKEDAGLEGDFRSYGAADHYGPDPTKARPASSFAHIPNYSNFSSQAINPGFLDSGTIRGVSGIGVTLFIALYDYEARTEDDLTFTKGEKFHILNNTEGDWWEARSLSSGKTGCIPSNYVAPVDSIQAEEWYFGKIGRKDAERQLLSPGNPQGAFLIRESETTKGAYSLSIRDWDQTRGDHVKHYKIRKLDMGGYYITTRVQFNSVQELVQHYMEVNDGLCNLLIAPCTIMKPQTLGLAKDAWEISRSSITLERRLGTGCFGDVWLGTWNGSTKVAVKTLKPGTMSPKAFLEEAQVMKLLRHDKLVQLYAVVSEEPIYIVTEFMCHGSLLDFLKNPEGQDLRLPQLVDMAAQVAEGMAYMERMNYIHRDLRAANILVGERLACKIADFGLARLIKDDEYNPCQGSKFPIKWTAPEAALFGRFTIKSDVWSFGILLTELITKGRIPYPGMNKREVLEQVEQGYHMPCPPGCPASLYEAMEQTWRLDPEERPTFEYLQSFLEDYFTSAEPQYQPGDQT

IC50 (FLT3): > 1 µM
IC50 [1]: 5.57 nM
IC50 (FGR): > 1 µM
IC50 [2]: 1.67 µM
IC50 [3]: 8.62 µM
IC50 [4]: 1.41 nM
IC50 (ITK): > 1 µM
IC50 (JAK3): > 1 µM
IC50 (HCK): > 1 µM
IC50 (BLK): 0.011 µM
IC50 (CSK): > 1 µM
Compound: C=CC(=O)N1CCC[C@@H](n2nc(-c3ccc(Oc4ccccc4)nc3F)c3c(N)ncnc32)C1 [Compound 17a, (R)-1-(3-(4-amino-3-(2-fluoro-6-phenoxypyridin-3-yl)-1H-pyrazolo[3,4-d]pyrimidin-1-yl)piperidin-1-yl)prop-2-en-1-one]
IC50 (hERG potassium channel): 7.8 µM
level of IL-1β in serum (in words) ([5]; 10 mg/kg orally once a day, versus model group): significantly reduce
IL-1β ([5]; serum on Day 13, 10 mg/kg orally once a day Day 2 to Day 12): 17.25 ± 3.9 ng/L
inflammatory cell infiltration, synovial hyperplasia, inflammatory granulation tissue formation, necrotic tissue ([5]; tissue samples after treatment, versus model group): significantly improved
TGI*(14 days) (%) calculated on the basis of tumor volume [6]: 82.54%
TGI**(14 days) (%) calculated on the basis of tumor weight [6]: 74.05%
